Legend:
[1] = system: Tyrosine-protein kinase ABL1 (Homo sapiens), P00519 [M351T]; conditions: Compound concentration 1000.0 nM
[2] = system: Tyrosine-protein kinase ABL1 (Homo sapiens), P00519 [Q252H]; conditions: Compound concentration 1000.0 nM
[3] = system: ALK tyrosine kinase receptor (Homo sapiens), Q9UM73 [C1156Y]; conditions: Compound concentration 1000.0 nM
[4] = target: Mitogen-activated protein kinase kinase kinase 5 (Homo sapiens) (UniProt Q99683); conditions: Compound concentration 1000.0 nM
Sequence of Mitogen-activated protein kinase kinase kinase 5 (Homo sapiens) (Q99683 whole entry): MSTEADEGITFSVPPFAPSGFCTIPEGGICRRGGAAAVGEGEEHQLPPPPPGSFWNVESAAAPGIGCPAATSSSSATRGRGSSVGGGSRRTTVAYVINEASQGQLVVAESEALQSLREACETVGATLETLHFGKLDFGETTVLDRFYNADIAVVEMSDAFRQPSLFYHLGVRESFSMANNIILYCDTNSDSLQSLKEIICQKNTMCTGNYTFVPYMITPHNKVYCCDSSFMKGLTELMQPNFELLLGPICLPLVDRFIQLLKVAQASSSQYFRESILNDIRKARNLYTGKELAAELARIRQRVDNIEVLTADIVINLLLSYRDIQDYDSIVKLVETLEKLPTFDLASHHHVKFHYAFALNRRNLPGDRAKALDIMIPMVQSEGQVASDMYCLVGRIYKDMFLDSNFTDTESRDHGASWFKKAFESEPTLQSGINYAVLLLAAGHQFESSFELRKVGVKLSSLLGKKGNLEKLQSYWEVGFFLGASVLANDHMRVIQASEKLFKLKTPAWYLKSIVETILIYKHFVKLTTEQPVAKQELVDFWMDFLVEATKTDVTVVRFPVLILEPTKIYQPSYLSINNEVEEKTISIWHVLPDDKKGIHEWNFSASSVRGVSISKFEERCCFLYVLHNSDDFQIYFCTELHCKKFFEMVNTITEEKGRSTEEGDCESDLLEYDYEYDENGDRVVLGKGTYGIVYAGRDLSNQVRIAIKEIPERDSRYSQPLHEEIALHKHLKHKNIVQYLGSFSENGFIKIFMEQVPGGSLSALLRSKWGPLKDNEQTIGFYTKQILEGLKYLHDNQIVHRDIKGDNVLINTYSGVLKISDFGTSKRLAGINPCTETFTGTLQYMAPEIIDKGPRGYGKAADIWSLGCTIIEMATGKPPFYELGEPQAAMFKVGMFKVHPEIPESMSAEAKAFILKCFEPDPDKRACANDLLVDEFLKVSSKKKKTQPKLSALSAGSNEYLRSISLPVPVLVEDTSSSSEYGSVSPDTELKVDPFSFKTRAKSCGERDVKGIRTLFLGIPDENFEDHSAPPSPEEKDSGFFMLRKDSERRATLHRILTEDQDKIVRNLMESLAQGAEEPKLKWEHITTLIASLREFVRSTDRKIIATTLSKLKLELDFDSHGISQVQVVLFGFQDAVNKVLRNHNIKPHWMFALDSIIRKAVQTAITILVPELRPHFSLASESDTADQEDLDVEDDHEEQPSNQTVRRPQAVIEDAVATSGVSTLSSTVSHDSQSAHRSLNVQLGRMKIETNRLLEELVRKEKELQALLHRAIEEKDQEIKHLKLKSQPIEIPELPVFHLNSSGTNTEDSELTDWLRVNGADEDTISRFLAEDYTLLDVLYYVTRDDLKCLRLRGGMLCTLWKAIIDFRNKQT

[5] = target: Bone morphogenetic protein receptor type-1A (Homo sapiens) (UniProt P36894); conditions: Compound concentration 1000.0 nM
Sequence of Bone morphogenetic protein receptor type-1A (Homo sapiens) (P36894 whole entry): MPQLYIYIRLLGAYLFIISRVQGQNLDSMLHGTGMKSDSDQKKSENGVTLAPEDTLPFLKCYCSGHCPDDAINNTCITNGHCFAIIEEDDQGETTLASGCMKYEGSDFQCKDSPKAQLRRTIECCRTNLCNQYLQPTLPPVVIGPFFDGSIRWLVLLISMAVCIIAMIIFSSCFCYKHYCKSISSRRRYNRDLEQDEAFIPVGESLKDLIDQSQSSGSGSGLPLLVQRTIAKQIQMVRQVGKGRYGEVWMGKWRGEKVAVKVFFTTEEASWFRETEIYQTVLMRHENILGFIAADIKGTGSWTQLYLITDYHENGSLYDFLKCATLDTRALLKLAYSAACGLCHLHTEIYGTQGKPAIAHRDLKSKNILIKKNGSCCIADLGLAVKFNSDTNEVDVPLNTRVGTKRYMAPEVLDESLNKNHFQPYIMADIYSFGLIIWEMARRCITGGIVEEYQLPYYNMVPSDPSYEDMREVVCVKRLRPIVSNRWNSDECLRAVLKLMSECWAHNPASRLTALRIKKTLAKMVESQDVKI

[6] = target: Cyclin-dependent kinase 13 (Homo sapiens) (UniProt Q14004); conditions: Compound concentration 1000.0 nM
[7] = target: Cyclin-dependent kinase 2 (Homo sapiens) (UniProt P24941); conditions: Compound concentration 1000.0 nM
[8] = target: Cyclin-dependent kinase 4 (Homo sapiens) (UniProt P11802); conditions: Compound concentration 1000.0 nM
Sequence of Cyclin-dependent kinase 4 (Homo sapiens) (P11802 whole entry): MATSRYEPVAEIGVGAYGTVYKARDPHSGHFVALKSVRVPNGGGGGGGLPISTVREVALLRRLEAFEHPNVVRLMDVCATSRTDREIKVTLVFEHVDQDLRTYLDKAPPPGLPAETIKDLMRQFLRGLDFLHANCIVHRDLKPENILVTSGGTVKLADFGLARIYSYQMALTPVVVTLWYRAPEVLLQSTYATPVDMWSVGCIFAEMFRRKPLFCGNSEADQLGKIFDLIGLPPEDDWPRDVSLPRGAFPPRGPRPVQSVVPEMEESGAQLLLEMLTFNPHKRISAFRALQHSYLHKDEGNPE

[9] = target: Cyclin-dependent kinase 4 (Homo sapiens) (UniProt P11802); conditions: Compound concentration 1000.0 nM; remark: listed apart in the source
[10] = target: Cyclin-dependent kinase 7 (Homo sapiens) (UniProt P50613); conditions: Compound concentration 1000.0 nM
Sequence of Cyclin-dependent kinase 7 (Homo sapiens) (P50613 whole entry): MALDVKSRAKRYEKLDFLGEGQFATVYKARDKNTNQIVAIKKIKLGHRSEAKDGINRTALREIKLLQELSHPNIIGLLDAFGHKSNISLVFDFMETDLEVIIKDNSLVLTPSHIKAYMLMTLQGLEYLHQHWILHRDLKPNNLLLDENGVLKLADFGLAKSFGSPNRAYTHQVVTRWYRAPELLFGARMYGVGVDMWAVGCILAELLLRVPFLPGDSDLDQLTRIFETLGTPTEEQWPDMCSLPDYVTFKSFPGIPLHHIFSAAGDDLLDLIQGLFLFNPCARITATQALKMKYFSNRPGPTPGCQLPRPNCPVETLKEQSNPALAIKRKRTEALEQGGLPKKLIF

[11] = target: Tyrosine-protein kinase CSK (Homo sapiens) (UniProt P41240); conditions: Compound concentration 1000.0 nM
Sequence of Tyrosine-protein kinase CSK (Homo sapiens) (P41240 2-450 limits assumed): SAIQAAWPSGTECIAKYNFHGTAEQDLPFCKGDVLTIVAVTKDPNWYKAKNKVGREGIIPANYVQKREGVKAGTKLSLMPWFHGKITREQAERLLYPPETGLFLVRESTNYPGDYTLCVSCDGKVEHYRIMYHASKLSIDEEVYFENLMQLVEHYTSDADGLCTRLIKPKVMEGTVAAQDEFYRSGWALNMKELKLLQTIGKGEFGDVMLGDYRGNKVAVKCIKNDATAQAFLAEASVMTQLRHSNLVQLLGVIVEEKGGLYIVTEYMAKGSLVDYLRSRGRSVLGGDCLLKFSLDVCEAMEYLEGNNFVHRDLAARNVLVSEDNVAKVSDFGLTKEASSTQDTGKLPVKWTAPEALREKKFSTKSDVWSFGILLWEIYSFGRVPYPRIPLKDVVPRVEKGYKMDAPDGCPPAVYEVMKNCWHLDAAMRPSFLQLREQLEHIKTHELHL

[12] = system: Epidermal growth factor receptor (Homo sapiens), P00533 [G719C]; conditions: Compound concentration 1000.0 nM
[13] = system: Epidermal growth factor receptor (Homo sapiens), P00533 [G719S]; conditions: Compound concentration 1000.0 nM
[14] = system: Epidermal growth factor receptor (Homo sapiens), P00533 [UNDEFINED MUTATION]; conditions: Compound concentration 1000.0 nM
[15] = target: Ephrin type-A receptor 2 (Homo sapiens) (UniProt P29317); conditions: Compound concentration 1000.0 nM
[16] = target: Ephrin type-A receptor 6 (Homo sapiens) (UniProt Q9UF33); conditions: Compound concentration 1000.0 nM
[17] = target: Mitogen-activated protein kinase 6 (Homo sapiens) (UniProt Q16659); conditions: Compound concentration 1000.0 nM
[18] = system: Receptor-type tyrosine-protein kinase FLT3 (Homo sapiens), P36888 [D835H]; conditions: Compound concentration 1000.0 nM
[19] = system: Receptor-type tyrosine-protein kinase FLT3 (Homo sapiens), P36888 [R834Q]; conditions: Compound concentration 1000.0 nM
[20] = target: Cyclin-G-associated kinase (Homo sapiens) (UniProt O14976); conditions: Compound concentration 1000.0 nM
Sequence of Cyclin-G-associated kinase (Homo sapiens) (O14976 whole entry): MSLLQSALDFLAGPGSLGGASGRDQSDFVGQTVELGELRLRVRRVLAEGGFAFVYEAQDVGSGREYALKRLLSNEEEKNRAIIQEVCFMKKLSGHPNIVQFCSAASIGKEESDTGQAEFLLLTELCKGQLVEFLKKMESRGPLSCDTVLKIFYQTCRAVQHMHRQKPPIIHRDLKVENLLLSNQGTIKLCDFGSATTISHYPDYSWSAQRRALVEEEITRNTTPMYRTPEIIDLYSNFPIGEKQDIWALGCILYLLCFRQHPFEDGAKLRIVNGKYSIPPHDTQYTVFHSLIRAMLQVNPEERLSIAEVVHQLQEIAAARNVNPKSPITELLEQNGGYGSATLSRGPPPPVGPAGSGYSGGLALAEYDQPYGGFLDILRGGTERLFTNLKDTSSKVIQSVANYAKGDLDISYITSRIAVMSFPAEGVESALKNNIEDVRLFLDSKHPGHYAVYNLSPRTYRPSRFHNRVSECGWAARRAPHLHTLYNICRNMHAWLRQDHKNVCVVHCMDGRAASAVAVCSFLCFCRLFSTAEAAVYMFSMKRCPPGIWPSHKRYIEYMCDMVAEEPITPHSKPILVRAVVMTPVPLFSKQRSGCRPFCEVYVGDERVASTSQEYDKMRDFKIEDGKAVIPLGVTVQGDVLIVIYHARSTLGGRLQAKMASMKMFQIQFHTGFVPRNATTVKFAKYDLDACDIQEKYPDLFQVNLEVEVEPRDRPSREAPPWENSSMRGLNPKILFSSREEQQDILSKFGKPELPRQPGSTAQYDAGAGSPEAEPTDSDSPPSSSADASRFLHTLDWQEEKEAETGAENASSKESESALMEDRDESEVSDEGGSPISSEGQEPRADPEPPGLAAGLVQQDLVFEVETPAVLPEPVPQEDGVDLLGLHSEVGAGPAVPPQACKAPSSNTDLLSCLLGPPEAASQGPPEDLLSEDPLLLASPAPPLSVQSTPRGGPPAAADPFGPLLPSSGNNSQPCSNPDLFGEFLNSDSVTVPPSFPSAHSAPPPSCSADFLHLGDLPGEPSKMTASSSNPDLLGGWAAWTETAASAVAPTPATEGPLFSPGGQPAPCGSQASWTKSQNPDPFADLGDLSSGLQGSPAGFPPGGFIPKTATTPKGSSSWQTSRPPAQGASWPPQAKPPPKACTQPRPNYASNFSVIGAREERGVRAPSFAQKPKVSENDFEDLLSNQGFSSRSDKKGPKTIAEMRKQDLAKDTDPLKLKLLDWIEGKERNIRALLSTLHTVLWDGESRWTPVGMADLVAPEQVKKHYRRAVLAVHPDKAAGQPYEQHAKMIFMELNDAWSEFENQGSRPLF

[21] = target: Tyrosine-protein kinase HCK (Homo sapiens) (UniProt P08631); conditions: Compound concentration 1000.0 nM
[22] = target: Homeodomain-interacting protein kinase 2 (Homo sapiens) (UniProt Q9H2X6); conditions: Compound concentration 1000.0 nM
[23] = target: Serine/threonine-protein kinase ICK (Homo sapiens) (UniProt Q9UPZ9); conditions: Compound concentration 1000.0 nM
Sequence of Serine/threonine-protein kinase ICK (Homo sapiens) (Q9UPZ9 whole entry): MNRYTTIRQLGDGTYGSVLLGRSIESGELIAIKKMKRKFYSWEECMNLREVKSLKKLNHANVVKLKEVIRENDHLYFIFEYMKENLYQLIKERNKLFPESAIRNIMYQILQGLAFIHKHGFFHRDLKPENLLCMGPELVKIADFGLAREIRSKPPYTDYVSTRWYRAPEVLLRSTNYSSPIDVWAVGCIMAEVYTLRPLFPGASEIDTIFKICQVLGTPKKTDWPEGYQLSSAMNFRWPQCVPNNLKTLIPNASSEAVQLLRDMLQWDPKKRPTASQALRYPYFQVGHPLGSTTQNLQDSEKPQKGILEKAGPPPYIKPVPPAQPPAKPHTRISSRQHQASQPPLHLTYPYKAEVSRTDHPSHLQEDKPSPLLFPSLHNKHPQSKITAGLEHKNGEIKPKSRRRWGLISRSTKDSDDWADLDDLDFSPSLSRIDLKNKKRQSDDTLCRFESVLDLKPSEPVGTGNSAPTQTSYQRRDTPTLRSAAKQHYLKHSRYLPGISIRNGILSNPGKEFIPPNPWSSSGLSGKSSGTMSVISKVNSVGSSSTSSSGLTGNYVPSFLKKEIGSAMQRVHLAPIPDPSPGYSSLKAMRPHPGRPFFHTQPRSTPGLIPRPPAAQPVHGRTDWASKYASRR

[24] = target: Serine/threonine-protein kinase MARK1 (Homo sapiens) (UniProt Q9P0L2); conditions: Compound concentration 1000.0 nM
[25] = target: Dual specificity mitogen-activated protein kinase kinase 4 (Homo sapiens) (UniProt P45985); conditions: Compound concentration 1000.0 nM
[26] = target: Maternal embryonic leucine zipper kinase (Homo sapiens) (UniProt Q14680); conditions: Compound concentration 1000.0 nM
[27] = target: Serine/threonine-protein kinase MRCK alpha (Homo sapiens) (UniProt Q5VT25); conditions: Compound concentration 1000.0 nM
[28] = target: Serine/threonine-protein kinase Nek11 (Homo sapiens) (UniProt Q8NG66); conditions: Compound concentration 1000.0 nM
[29] = target: Serine/threonine-protein kinase Nek4 (Homo sapiens) (UniProt P51957); conditions: Compound concentration 1000.0 nM
[30] = target: Serine/threonine-protein kinase Nek6 (Homo sapiens) (UniProt Q9HC98); conditions: Compound concentration 1000.0 nM
[31] = target: Mitogen-activated protein kinase 11 (Homo sapiens) (UniProt Q15759); conditions: Compound concentration 1000.0 nM
[32] = target: Serine/threonine-protein kinase PAK 1 (Homo sapiens) (UniProt Q13153); conditions: Compound concentration 1000.0 nM
[33] = target: Platelet-derived growth factor receptor alpha (Homo sapiens) (UniProt P16234); conditions: Compound concentration 1000.0 nM
[34] = target: Cyclin-dependent kinase 15 (Homo sapiens) (UniProt Q96Q40); conditions: Compound concentration 1000.0 nM
[35] = target: Phosphatidylinositol 4-phosphate 3-kinase C2 domain-containing subunit beta (Homo sapiens) (UniProt O00750); conditions: Compound concentration 1000.0 nM
[36] = system: Phosphatidylinositol 4,5-bisphosphate 3-kinase catalytic subunit alpha isoform (Homo sapiens), P42336 [Q546K]; conditions: Compound concentration 1000.0 nM
[37] = target: cGMP-dependent protein kinase 2 (Homo sapiens) (UniProt Q13237); conditions: Compound concentration 1000.0 nM
[38] = target: Protein-tyrosine kinase 2-beta (Homo sapiens) (UniProt Q14289); conditions: Compound concentration 1000.0 nM
[39] = target: Proto-oncogene tyrosine-protein kinase receptor Ret (Homo sapiens) (UniProt P07949); conditions: Compound concentration 1000.0 nM
[40] = target: Ribosomal protein S6 kinase alpha-1 (Homo sapiens) (UniProt Q15418); conditions: Compound concentration 1000.0 nM
[41] = target: SNF-related serine/threonine-protein kinase (Homo sapiens) (UniProt Q9NRH2); conditions: Compound concentration 1000.0 nM
[42] = target: Serine/threonine-protein kinase TNNI3K (Homo sapiens) (UniProt Q59H18); conditions: Compound concentration 1000.0 nM
[43] = target: Dual specificity protein kinase TTK (Homo sapiens) (UniProt P33981); conditions: Compound concentration 1000.0 nM
[44] = target: GABA-A receptor; anion channel (Rattus norvegicus) (UniProt O09028+P15431+P18506+P18508+P19969+P20236+P23574+P23576+P28471+P28473+P30191+P62813+P63079+P63138+Q91ZM7+Q9ES14); conditions: Compound concentration 10.0 uM

With CC(=O)c1c(NS(C)(=O)=O)c2cc(-c3ccc(Cl)cc3)c(-c3ccc(Cl)cc3Cl)nc2n(C)c1=O [MRL-CB1-NC] the residual activity [1] was 87%, the residual activity [2] was 76% and the residual activity [3] was 100%. It also gave a residual activity [4] of 85%, a residual activity [5] of 95% and a residual activity [6] of 96%. The residual activity [7] was 100%, the residual activity [8] was 100% and the residual activity [9] was 94%. It also gave a residual activity [10] of 82%, a residual activity [11] of 100% and a residual activity [12] of 100%. For the same compound, the residual activity [13] was 100%, the residual activity [14] was 90% and the residual activity [15] was 100%. It also gave a residual activity [16] of 93%, a residual activity [17] of 100% and a residual activity [18] of 96%. It also gave a residual activity [19] of 100%, a residual activity [20] of 100% and a residual activity [21] of 100%. For the same compound, the residual activity [22] was 87%, the residual activity [23] was 77% and the residual activity [24] was 100%. For the same compound, the residual activity [25] was 89%, the residual activity [26] was 100% and the residual activity [27] was 95%. The residual activity [28] was 79%, the residual activity [29] was 100% and the residual activity [30] was 100%. For the same compound, the residual activity [31] was 100%, the residual activity [32] was 96% and the residual activity [33] was 88%. The residual activity [34] was 100%, the residual activity [35] was 100% and the residual activity [36] was 86%. The residual activity [37] was 100%, the residual activity [38] was 100% and the residual activity [39] was 93%. For the same compound, the residual activity [40] was 93%, the residual activity [41] was 98% and the residual activity [42] was 100%. The residual activity [43] was 100% and the inhibition [44] was 60.9%.

With CC(=O)Nc1c(C(C)=O)c(=O)n(C)c2nc(-c3ccc(Cl)cc3Cl)c(-c3ccc(Cl)cc3)cc12 [NAPHTHYRIDINONE] the residual activity [1] was 100%, the residual activity [2] was 72% and the residual activity [3] was 100%. The residual activity [4] was 100%, the residual activity [5] was 85% and the residual activity [6] was 100%. The residual activity [7] was 100%, the residual activity [8] was 100% and the residual activity [9] was 100%. For the same compound, the residual activity [10] was 100%, the residual activity [11] was 100% and the residual activity [12] was 100%. For the same compound, the residual activity [13] was 100%, the residual activity [14] was 86% and the residual activity [15] was 100%. The residual activity [16] was 100%, the residual activity [17] was 100% and the residual activity [18] was 100%. The residual activity [19] was 100%, the residual activity [20] was 100% and the residual activity [21] was 100%. For the same compound, the residual activity [22] was 100%, the residual activity [23] was 100% and the residual activity [24] was 100%. For the same compound, the residual activity [25] was 100%, the residual activity [26] was 100% and the residual activity [27] was 100%. For the same compound, the residual activity [28] was 100%, the residual activity [29] was 100% and the residual activity [30] was 100%. For the same compound, the residual activity [31] was 93%, the residual activity [32] was 100% and the residual activity [33] was 100%. For the same compound, the residual activity [34] was 100%, the residual activity [35] was 48% and the residual activity [36] was 100%. The residual activity [37] was 100%, the residual activity [38] was 100% and the residual activity [39] was 100%. The residual activity [40] was 100%, the residual activity [41] was 78% and the residual activity [42] was 100%. It also gave a residual activity [43] of 100% and an inhibition [44] of 30.2%.

— ChEMBL document CHEMBL4507287, “Data for DCP probe MRL-650” (2021)
